From patent US9724358B2, “Minocycline compounds and methods of use thereof” (Paratek Pharmaceuticals, Inc., priority 2008, dated 2017)

Columns and labels:
MSSA = test: Phase 2 CSSSI study, clinical outcome by organism: MSSA; type: in vivo, Staphylococcus aureus
Protocol: (§1) A randomized (1:1), controlled, evaluator-blinded Phase 2 study comparing 9-[(2,2-dimethyl-propyl amino)-methyl-minocycline (compound 1) and linezolid (Zyvox™) for the treatment of complicated skin and skin structure infections (CSSSI) was conducted. Patients with CSSSI who required initial intravenous (IV) therapy and met inclusion and exclusion criteria were enrolled at 11 centers in the US and were randomized to receive either compound 1 (100 mg Q24 h IV with 200 mg Q24 h oral step-down) or linezolid (600 mg Q12 h IV with 600 mg Q12 h oral step-down).
(§2) An infecting pathogen was defined as an isolate derived from the last positive culture taken from the site of infection under study prior to and including day 1.

Viridans Strep = test: Phase 2 CSSSI study, clinical outcome by organism: Viridans Strep; type: in vivo, Viridans Streptococci; conditions: ME population
Protocol: as §1, §2

Enterococcus = test: Phase 2 CSSSI study, clinical outcome by organism: Enterococcus; type: in vivo; conditions: ME population
Protocol: as §1, §2

G+ anaerobes = test: Phase 2 CSSSI study, clinical outcome by organism: G+ anaerobes; type: in vivo, gram-positive anaerobes; conditions: ME population
Protocol: as §1, §2

Mixed GPC = test: Phase 2 CSSSI study, clinical outcome by organism: Mixed GPC; type: in vivo; conditions: ME population
Protocol: as §1, §2

Mixed GPC/GNR = test: Phase 2 CSSSI study, clinical outcome by organism: Mixed GPC/GNR; type: in vivo; conditions: ME population
Protocol: as §1, §2

infecting pathogen = test: Phase 2 CSSSI study, microbiology outcome; type: in vivo, human; conditions: ME population
Protocol: as §2
A persisting pathogen at the site of infection under study was defined as an isolate that was the same genus and species as an infecting pathogen; and was cultured at the Test-of-Cure evaluation from the site of infection under study.
A superinfecting pathogen at the site of infection under study is defined as a pathogen meeting all of the following criteria: represented a genus and species not isolated during the Enrollment evaluation, was cultured at any time from the day 3 of treatment to the test of cure evaluation, inclusive; was cultured from a patient who had at least one infecting pathogen; and was cultured from a patient who represents a “clinical failure.”
Microbiological response to treatment was determined for each infecting pathogen using the following classification: documented eradication, presumed eradication, documented persistence, presumed persistence, or unknown.
Microbiological response to treatment was determined for each subject using the following classification:
Microbiologic Success—all infecting pathogens isolated at baseline were eradicated or presumed eradicated at the test-of-cure evaluation and no superinfecting pathogen was isolated from the site of infection under study.
Microbiological Failure—persistence or presumed persistence of one or more infecting pathogens or isolation of a superinfecting pathogen from the site of infection under study.

[1] = Phase 2 CSSSI study, safety and adverse events by patient; type: in vivo, human
Protocol: as §1
(§3) At each of the four structured evaluations, the blinded evaluator assessed the subject, with particular attention to scoring the findings at the primary site of infection and obtaining cultures. Clinical and microbiologic outcomes were determined using these assessments. Primary evaluation criteria was safety and tolerability compared with linezolid. Secondary evaluation criteria was efficacy of compound 1 compared to linezolid, as well as pharmacokinetics of compound 1.
In addition, the patients in the study were monitored for adverse events (AE). An adverse event is any untoward medical occurrence temporally associated with the use of a medical product in a subject, whether or not the event is considered causally related to the medical product.

[2] = Phase 2 CSSSI study, safety: ALT level; type: in vivo, human
Protocol: as §1, §3

[3] = clinical failure, no pathogen at TOC
[4] = clinical success, enrollment pathogen isolated at TOC
[5] = clinical success, no pathogen at TOC
[6] = probably or possibly drug-related by blinded evaluator
[7] = EOT, ALT abnormal at enrollment
[8] = EOT, ALT within normal limits at enrollment
[9] = TOC, ALT abnormal at enrollment
[10] = TOC, ALT within normal limits at enrollment
[11] = max on treatment, ALT abnormal at enrollment
[12] = max on treatment, ALT within normal limits at enrollment

CN(C)c1cc(CNCC(C)(C)C)c(O)c2c1C[C@H]1C[C@H]3[C@H](N(C)C)C(O)=C(C(N)=O)C(=O)[C@@]3(O)C(O)=C1C2=O [Compound 1, 9-[(2,2-dimethyl-propylamino)-methyl]-minocycline]
Clinical outcome Failure (number) (MSSA; ME population, MSSA): 2 | Clinical outcome Success (number) (MSSA; ME population, MSSA): 27 | clinical success rate against MSSA (MSSA; as determined in the trials of the Exemplification): 93% | Clinical outcome Failure (number) (Viridans Strep): 1 | Clinical outcome Success (number) (Viridans Strep): 3 | Clinical outcome Failure (number) (Enterococcus): 1 | Clinical outcome Success (number) (Enterococcus): 1 | Clinical outcome Failure (number) (G+ anaerobes): 0 | Clinical outcome Success (number) (G+ anaerobes): 0 | Clinical outcome Failure (number) (Mixed GPC): 2 | Clinical outcome Success (number) (Mixed GPC): 16 | Clinical outcome Failure (number) (Mixed GPC/GNR): 2 | Clinical outcome Success (number) (Mixed GPC/GNR): 12 | Presumed Persistence (% of subjects) (infecting pathogen; [3]): 2.7% | Presumed Persistence (number of subjects) (infecting pathogen; [3]): 2 | Persistence (% of subjects) (infecting pathogen; [4]): 2.7% | Persistence (number of subjects) (infecting pathogen; [4]): 2 | Presumed Eradication (% of subjects) (infecting pathogen; [5]): 94.7% | Presumed Eradication (number of subjects) (infecting pathogen; [5]): 71 | tolerability ([1]; 100 mg Q24 h IV with 200 mg Q24 h oral step-down): well tolerated | Adverse events by patient, Musculoskeletal, Drug Related ([1]; human, in vivo): 0 | Adverse events by patient, Musculoskeletal, Total ([1]; human, in vivo): 8 | GI events leading to discontinuation of therapy ([1]; human, in vivo): did not result in discontinuation of therapy | severity of GI events ([1]; observed almost entirely during oral therapy): mild | Adverse events by patient, Cardiac, Drug Related [1, 6]: 0 | Adverse events by patient, Ear, Drug Related [1, 6]: 0 | Adverse events by patient, Eye, Drug Related [1, 6]: 0 | Adverse events by patient, GI, Drug Related [1, 6]: 12 | Adverse events by patient, General, Drug Related [1, 6]: 5 | Adverse events by patient, Heme, Drug Related [1, 6]: 0 | Adverse events by patient, Infection, Drug Related [1, 6]: 0 | Adverse events by patient, Injury, Drug Related [1, 6]: 0 | Adverse events by patient, Investigations, Drug Related [1, 6]: 3 | Adverse events by patient, Metabolism, Drug Related [1, 6]: 1 | Adverse events by patient, Neurologic, Drug Related [1, 6]: 4 | Adverse events by patient, Psych, Drug Related [1, 6]: 2 | Adverse events by patient, Renal, Drug Related [1, 6]: 1 | Adverse events by patient, Reproductive, Drug Related [1, 6]: 0 | Adverse events by patient, Respiratory, Drug Related [1, 6]: 0 | Adverse events by patient, Skin, Drug Related [1, 6]: 7 | Adverse events by patient, Vascular, Drug Related [1, 6]: 0 | Adverse events by patient, Cardiac, Total ([1]; safety population): 4 | Adverse events by patient, Ear, Total ([1]; safety population): 0 | Adverse events by patient, Eye, Total ([1]; safety population): 2 | Adverse events by patient, GI, Total ([1]; safety population): 21 | Adverse events by patient, General, Total ([1]; safety population): 11 | Adverse events by patient, Heme, Total ([1]; safety population): 1 | Adverse events by patient, Infection, Total ([1]; safety population): 6 | Adverse events by patient, Injury, Total ([1]; safety population): 1 | Adverse events by patient, Investigations, Total ([1]; safety population): 7 | Adverse events by patient, Metabolism, Total ([1]; safety population): 9 | Adverse events by patient, Neurologic, Total ([1]; safety population): 12 | Adverse events by patient, Psych, Total ([1]; safety population): 5 | Adverse events by patient, Renal, Total ([1]; safety population): 2 | Adverse events by patient, Reproductive, Total ([1]; safety population): 2 | Adverse events by patient, Respiratory, Total ([1]; safety population): 3 | Adverse events by patient, Skin, Total ([1]; safety population): 12 | Adverse events by patient, Vascular, Total ([1]; safety population): 3 | Patients with no adverse event (None), % ([1]; safety population): 58.6% | Patients with no adverse event (None), number ([1]; safety population): 65 | Total Patients with 1 or more AE, % ([1]; safety population): 41.4% | Total Patients with 1 or more AE, number ([1]; safety population): 56 | ALT Increase: >2x ULN and 2x baseline (number) [2, 7]: 0 | ALT NS: >ULN and <2x baseline (%) [2, 7]: 84.6% | ALT NS: >ULN and <2x baseline (number) [2, 7]: 11 | ALT Within normal limits (%) [2, 7]: 15.4% | ALT Within normal limits (number) [2, 7]: 2 | ALT 1x-2x (%) [2, 8]: 6.5% | ALT 1x-2x (number) [2, 8]: 6 | ALT 2x-3x (number) [2, 8]: 0 | ALT >3x (number) [2, 8]: 0 | ALT Within normal limits (%) [2, 8]: 93.5% | ALT Within normal limits (number) [2, 8]: 86 | ALT Increase: >2x ULN and 2x baseline (%) [2, 9]: (7.7%) | ALT Increase: >2x ULN and 2x baseline (number) [2, 9]: 1 | ALT NS: >ULN and <2x baseline (%) [2, 9]: (69.2%) | ALT NS: >ULN and <2x baseline (number) [2, 9]: 9 | ALT Within normal limits (%) [2, 9]: (23.1%) | ALT Within normal limits (number) [2, 9]: 3 | ALT 1x-2x (%) [2, 10]: (5.6%) | ALT 1x-2x (number) [2, 10]: 5 | ALT 2x-3x (number) [2, 10]: 0 | ALT >3x (number) [2, 10]: 0 | ALT Within normal limits (%) [2, 10]: (94.4%) | ALT Within normal limits (number) [2, 10]: 85 | ALT Increase: >2x ULN and 2x baseline (%) [2, 11]: (14.3%) | ALT Increase: >2x ULN and 2x baseline (number) [2, 11]: 2 | ALT NS: >ULN and <2x baseline (%) [2, 11]: (78.6%) | ALT NS: >ULN and <2x baseline (number) [2, 11]: 11 | ALT Within normal limits (%) [2, 11]: (7.1%) | ALT Within normal limits (number) [2, 11]: 1 | ALT 1x-2x (%) [2, 12]: (12.4%) | ALT 1x-2x (number) [2, 12]: 12 | ALT 2x-3x (number) [2, 12]: 0 | ALT >3x (%) [2, 12]: (1.0%) | ALT >3x (number) [2, 12]: 1 | ALT Within normal limits (%) [2, 12]: (86.6%) | ALT Within normal limits (number) [2, 12]: 84
